Experimental data taken from patent US6479499B1.
≈ marks a conversion by molar mass, not a printed value. Where two headings read alike, the source gives them in different places.

Assays:
bovine brain tubulin = test: Tubulin polymerization assay (antimicrotubule assay); settings: read-out: ITP (inhibition of tubulin polymerization) IC50; tubulin […] (12 μM), 26° C., 20 min
lung carcinoma (A-549) = test: In vitro cytotoxicity, A-549; settings: Homo sapiens; for IC50: A549, 96 h, read-out: ED50 A-549
[1] = test system: P-gp-expressing epidermoid carcinoma of the nasopharynx (KB-VIN); test: In vitro cytotoxicity, KB-VIN; settings: Homo sapiens, KBVIN, 96 h, read-out: ED50 KB-VIN
[2] = test system: epidermoid carcinoma of the nasopharynx (KB); test: In vitro cytotoxicity, KB; settings: Homo sapiens; for IC50: 96 h, read-out: ED50 KB
melanoma (SKMEL-2) = test: In vitro cytotoxicity, SKMEL-2; settings: Homo sapiens; for IC50: SK-MEL-2, 96 h, read-out: ED50 SKMEL-2
[3] = test system: ileocecal carcinoma (HCT-8); test: In vitro cytotoxicity, HCT-8; settings: Homo sapiens; for IC50: HCT-8, 96 h, read-out: ED50 HCT-8
[4] = test system: human ovarian cancer (1A9); test: In vitro cytotoxicity, 1A9; settings: 96 h, read-out: ED50 1A9
bone (HOS) = test: In vitro cytotoxicity, HOS; settings: Homo sapiens; for IC50: 96 h, read-out: ED50 HOS; for inhibition at 20 µg/mL: read-out: Inhibition at highest test concentration (in brackets), HOS
breast cancer (MCF-7) = test: In vitro cytotoxicity, MCF-7; settings: Homo sapiens; for IC50: MCF7, 96 h, read-out: ED50 MCF-7; for inhibition at 20 µg/mL: MCF7, read-out: Inhibition at highest test concentration (in brackets), MCF-7
glioblastoma (U-87-MG) = test: In vitro cytotoxicity, U-87-MG; settings: Homo sapiens; for IC50: 96 h, read-out: ED50 U-87-MG; for inhibition at 20 µg/mL: read-out: Inhibition at highest test concentration (in brackets), U-87-MG
prostate cancer (PC3) = test: In vitro cytotoxicity, PC3; settings: Homo sapiens; for IC50: 96 h, read-out: ED50 PC3; for inhibition at 20 µg/mL: read-out: Inhibition at highest test concentration (in brackets), PC3
[5] = test system: platelet aggregation induced by thrombin; test: Antiplatelet assay, thrombin-induced aggregation; assay type: cell-based, rabbit; settings: for Inhibition of thrombin-induced platelet aggregation in words: Table 5; for Percent aggregation, thrombin: thrombin 0.1 U/ml
Procedure: (§1) c. Antiplatelet assay. Blood, collected from the marginal ear vein of rabbits was mixed with EDTA to a final concentration of 6 mM and centrifuged at 90 g for 10 mm at room temperature to obtain platelet-rich plasma. The latter was further centrifuged at 500 g for 10 mm and the platelets were washed with Tyrode's solution without EDTA. After centrifugation at the same conditions, the platelets were suspended in Tyrode's solution with the following compositions (mM): NaCl (136.8), KCl (2.8), NaNCO3(11.9), MgCl2(1.1), NaH2PO4(0.33), CaCl2(1.0), and glucose (11.2). Platelet numbers were determined with a Coulter Counter (Model ZM) and adjusted to 4.5×10^8 platelets/ml.
(§2) Aggregation was measured by the turbidimetric method [O'brien, J. R. J. Clin. Pathol. 1962, 15,452] with a dual-channel Lumi aggregometer (Model 1020, Payton, Canada). All glass ware was siliconized. Test compounds were added one minute before the addition of the aggregation inducer and the platelet suspension was stirred at 900 rpm. The percentage of aggregation was calculated as previously described [Teng, C. M.; Chen, W. Y.; Ko, W. C.; Ouyang, C. Biochem. Biophys. Acta. 1987, 924, 375].

[6] = test system: platelet aggregation induced by arachidonic acid (AA); test: Antiplatelet assay, arachidonic acid-induced aggregation; assay type: cell-based, rabbit; settings: for IC50: Oryctolagus cuniculus, Platelet; for IC50 / Percent aggregation, AA: AA 100 μM; for Inhibition of AA-induced platelet aggregation in words: Table 5
Procedure: as §1, §2

[7] = test system: platelet aggregation induced by collagen; test: Antiplatelet assay, collagen-induced aggregation; assay type: cell-based, rabbit; settings: for IC50: Oryctolagus cuniculus, Platelet, read-out: IC50, collagen-induced platelet aggregation (Table 5); for IC50 / Percent aggregation, collagen: collagen 10 μg/ml; for Inhibition of collagen-induced platelet aggregation in words: Table 5
Procedure: as §1, §2

[8] = test system: platelet aggregation induced by platelet-activating factor (PAF); test: Antiplatelet assay, PAF-induced aggregation; assay type: cell-based, rabbit; settings: for Inhibition of PAF-induced platelet aggregation in words: Table 5; for Percent aggregation, PAF: PAF 2 ng/ml
Procedure: as §1, §2

[9] = compound 100 μg/ml, 37° C., 1 min preincubation
[10] = 37° C., 1 min preincubation, read-out: IC50, platelet aggregation induced by arachidonic acid (in vitro) (Table 6)
[11] = read-out: IC50, AA-induced platelet aggregation (Table 5)

COc1cc(OC)cc(C2NC(=O)c3ccccc3N2)c1 (racemic) [Compound 67, 2,3-Dihydro-2-(3′,5′-dimethoxyphenyl)-4-quinazolinone]
IC50 (bovine brain tubulin): 12 ± 3 µM | IC50 (lung carcinoma (A-549)): 5 µg/mL (≈ 17.6 µM) | IC50 [1]: 1.6 µg/mL (≈ 5.63 µM) | IC50 [2]: 4.7 µg/mL (≈ 16.5 µM) | IC50 (melanoma (SKMEL-2)): 4.4 µg/mL (≈ 15.5 µM) | IC50 [3]: 3 µg/mL (≈ 10.6 µM) | IC50 [4]: 1.92 µg/mL (≈ 6.75 µM) | IC50 (bone (HOS)): > 20 µg/mL | inhibition at 20 µg/mL (bone (HOS)): 41% | IC50 (breast cancer (MCF-7)): > 20 µg/mL | inhibition at 20 µg/mL (breast cancer (MCF-7)): 49% | IC50 (glioblastoma (U-87-MG)): > 20 µg/mL | inhibition at 20 µg/mL (glioblastoma (U-87-MG)): 37% | IC50 (prostate cancer (PC3)): > 20 µg/mL | inhibition at 20 µg/mL (prostate cancer (PC3)): 44%

CCOc1nc(-c2ccccc2)nc2ccccc12 [Compound 70, 4-Ethoxy-2-phenylquinazoline]
Inhibition of thrombin-induced platelet aggregation in words [5]: poor inhibitors | Percent aggregation, thrombin ([5]; compound 20 μg/ml): 91.5 ± 1.2(4) % | Percent aggregation, thrombin ([5]; compound 50 μg/ml): 75.1 ± 7.3(4) % | Percent aggregation, thrombin [5, 9]: 11.7 ± 6.5(4) % | IC50 [6, 10]: 1.6 µM | IC50 [6, 11]: 1.6 µM | Inhibition of AA-induced platelet aggregation in words [6]: relatively stronger inhibitors | Percent aggregation, AA ([6]; compound 0.1 μg/ml): 85.5 ± 2.0(5) % | Percent aggregation, AA ([6]; compound 0.2 μg/ml): 76.9 ± 5.4(5) % | Percent aggregation, AA ([6]; compound 0.5 μg/ml): 33.8 ± 13.4(5) % | Percent aggregation, AA ([6]; compound 1 μg/ml): 0.0 ± 0.0(5) % | Percent aggregation, AA ([6]; compound 100 μg/ml): 0.0 ± 0.0(5) % | IC50 [7]: 9.2 µM | Inhibition of collagen-induced platelet aggregation in words [7]: relatively stronger inhibitors | Percent aggregation, collagen ([7]; compound 0.1 μg/ml): 86.4 ± 2.9(4) % | Percent aggregation, collagen ([7]; compound 0.2 μg/ml): 78.5 ± 4.7(4) % | Percent aggregation, collagen ([7]; compound 0.5 μg/ml): 63.9 ± 7.4(4) % | Percent aggregation, collagen ([7]; compound 1 μg/ml): 47.1 ± 6.6(4) % | Percent aggregation, collagen ([7]; compound 2 μg/ml): 35.0 ± 10.3(4) % | Percent aggregation, collagen ([7]; compound 5 μg/ml): 30.1 ± 9.0(4) % | Percent aggregation, collagen ([7]; compound 10 μg/ml): 19.3 ± 9.8(4) % | Percent aggregation, collagen ([7]; compound 20 μg/ml): 10.3 ± 6.0(4) % | Percent aggregation, collagen ([7]; compound 50 μg/ml): 0.0 ± 0.0(4) % | Percent aggregation, collagen ([7]; compound 100 μg/ml): 0.0 ± 0.0(4) % | Inhibition of PAF-induced platelet aggregation in words [8]: poor inhibitors | Percent aggregation, PAF ([8]; compound 20 μg/ml): 88.8 ± 1.0(4) % | Percent aggregation, PAF ([8]; compound 50 μg/ml): 19.8 ± 7.0(4) % | Percent aggregation, PAF ([8]; compound 100 μg/ml): 2.1 ± 1.8(4) %

COc1nc(-c2ccccc2)nc2ccccc12 [Compound 69, 4-Methoxy-2-phenylquinazoline]
Inhibition of thrombin-induced platelet aggregation in words [5]: poor inhibitors | Percent aggregation, thrombin ([5]; compound 20 μg/ml): 88.1 ± 0.8(3) % | Percent aggregation, thrombin ([5]; compound 50 μg/ml): 13.3 ± 5.3(3) % | Percent aggregation, thrombin [5, 9]: 2.8 ± 2.3(3) % | IC50 [6, 10]: 7.2 µM | IC50 [6, 11]: 7.2 µM | Inhibition of AA-induced platelet aggregation in words [6]: relatively stronger inhibitors | Percent aggregation, AA ([6]; compound 0.5 μg/ml): 86.0 ± 1.2(4) % | Percent aggregation, AA ([6]; compound 1 μg/ml): 65.0 ± 8.1(4) % | Percent aggregation, AA ([6]; compound 2 μg/ml): 35.3 ± 14.9(4) % | Percent aggregation, AA ([6]; compound 5 μg/ml): 15.0 ± 11.8(4) % | Percent aggregation, AA ([6]; compound 10 μg/ml): 0.0 ± 0.0(4) % | Percent aggregation, AA ([6]; compound 100 μg/ml): 0.0 ± 0.0(4) % | IC50 [7]: 8.47 µM | Inhibition of collagen-induced platelet aggregation in words [7]: relatively stronger inhibitors | Percent aggregation, collagen ([7]; compound 0.2 μg/ml): 88.4 ± 1.9(4) % | Percent aggregation, collagen ([7]; compound 0.5 μg/ml): 76.2 ± 3.7(4) % | Percent aggregation, collagen ([7]; compound 1 μg/ml): 52.6 ± 7.5(4) % | Percent aggregation, collagen ([7]; compound 2 μg/ml): 43.0 ± 6.4(4) % | Percent aggregation, collagen ([7]; compound 5 μg/ml): 31.5 ± 6.4(4) % | Percent aggregation, collagen ([7]; compound 10 μg/ml): 1.1 ± 0.9(4) % | Percent aggregation, collagen ([7]; compound 20 μg/ml): 0.0 ± 0.0(4) % | Percent aggregation, collagen ([7]; compound 100 μg/ml): 0.0 ± 0.0(4) % | Inhibition of PAF-induced platelet aggregation in words [8]: poor inhibitors | Percent aggregation, PAF ([8]; compound 20 μg/ml): 87.9 ± 1.8(4) % | Percent aggregation, PAF ([8]; compound 50 μg/ml): 38.1 ± 8.3(4) % | Percent aggregation, PAF ([8]; compound 100 μg/ml): 2.1 ± 1.8(4) %

COc1ccc(OC)c(C2NC(=O)c3ccccc3N2)c1 (racemic) [Compound 65, 2,3-Dihydro-2-(2′,5′-dimethoxyphenyl)-4-quinazolinone]
IC50 (bovine brain tubulin): 32 ± 4 µM | IC50 (lung carcinoma (A-549)): > 20 µg/mL | inhibition at 20 µg/mL (lung carcinoma (A-549); A549, read-out: Inhibition at highest test concentration (in brackets), A-549): 42% | IC50 [1]: 8.4 µg/mL (≈ 29.5 µM) | IC50 [2]: > 20 µg/mL | inhibition at 20 µg/mL ([2]; read-out: Inhibition at highest test concentration (in brackets), KB): 40% | IC50 (melanoma (SKMEL-2)): > 20 µg/mL | inhibition at 20 µg/mL (melanoma (SKMEL-2); SK-MEL-2, read-out: Inhibition at highest test concentration (in brackets), SKMEL-2): 44% | IC50 [3]: > 20 µg/mL | inhibition at 20 µg/mL ([3]; HCT-8, read-out: Inhibition at highest test concentration (in brackets), HCT-8): 32% | IC50 [4]: 10 µg/mL (≈ 35.2 µM) | IC50 (bone (HOS)): > 20 µg/mL | inhibition at 20 µg/mL (bone (HOS)): 40% | IC50 (breast cancer (MCF-7)): > 20 µg/mL | inhibition at 20 µg/mL (breast cancer (MCF-7)): 42% | IC50 (glioblastoma (U-87-MG)): > 20 µg/mL | inhibition at 20 µg/mL (glioblastoma (U-87-MG)): 5% | IC50 (prostate cancer (PC3)): > 20 µg/mL | inhibition at 20 µg/mL (prostate cancer (PC3)): 22%
